Where “and” joins values, the source holds several entries; their conditions need not be identical. Identical values can stand only once. Inconclusive results and toxic doses are left out. Rule as the data show it: active = T/C of 150% or more; inactive = T/C below 125%.
System: L1210 leukemia ip in BDF1 mice, survival T/C
Experiment: NCI In Vivo Anticancer Drug Screen. Data for tumor model L1210 Leukemia (intraperitoneal) in B6D2F1 (BDF1) mice
Settings: endpoint: mean survival time, higher = longer survival
How it was run: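 Value reflects the ratio of survival in compound-treated mice to survival in vehicle-treated controls, with both groups carrying the same transplanted tumor.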

[1] = dose: 100.0 mg/kg/injection, schedule: Q04DX002 (ip), vehicle: Klucel (hydroxypropylcellulose) (HPC)
[2] = dose: 200.0 mg/kg/injection, schedule: Q04DX002 (ip), vehicle: Klucel (hydroxypropylcellulose) (HPC)
[3] = dose: 400.0 mg/kg/injection, schedule: Q04DX002 (ip), vehicle: Klucel (hydroxypropylcellulose) (HPC)
[4] = dose: 100.0 mg/kg/injection, schedule: Q04DX003 (ip), vehicle: Klucel (hydroxypropylcellulose) (HPC)
[5] = dose: 200.0 mg/kg/injection, schedule: Q04DX003 (ip), vehicle: Klucel (hydroxypropylcellulose) (HPC)
[6] = dose: 400.0 mg/kg/injection, schedule: Q04DX003 (ip), vehicle: Klucel (hydroxypropylcellulose) (HPC)
[7] = dose: 100.0 mg/kg/injection, schedule: Q01DX009 (ip), vehicle: saline with Tween-80
[8] = dose: 200.0 mg/kg/injection, schedule: Q01DX009 (ip), vehicle: saline with Tween-80
[9] = dose: 100.0 mg/kg/injection, schedule: Q01DX009 (ip), vehicle: Klucel (hydroxypropylcellulose) (HPC)
[10] = dose: 200.0 mg/kg/injection, schedule: Q01DX009 (ip), vehicle: Klucel (hydroxypropylcellulose) (HPC)
[11] = dose: 400.0 mg/kg/injection, schedule: Q01DX009 (ip), vehicle: Klucel (hydroxypropylcellulose) (HPC)
[12] = dose: 10.0 mg/kg/injection, schedule: Q01DX001 (ip), vehicle: saline
[13] = dose: 20.0 mg/kg/injection, schedule: Q01DX001 (ip), vehicle: saline
[14] = dose: 100.0 mg/kg/injection, schedule: Q01DX009 (ip), vehicle: other
[15] = dose: 200.0 mg/kg/injection, schedule: Q01DX009 (ip), vehicle: other
[16] = dose: 400.0 mg/kg/injection, schedule: Q01DX009 (ip), vehicle: other
[17] = dose: 100.0 mg/kg/injection, schedule: Q01DX001 (ip), vehicle: Klucel (hydroxypropylcellulose) (HPC)
[18] = dose: 200.0 mg/kg/injection, schedule: Q01DX001 (ip), vehicle: Klucel (hydroxypropylcellulose) (HPC)
[19] = dose: 400.0 mg/kg/injection, schedule: Q01DX001 (ip), vehicle: Klucel (hydroxypropylcellulose) (HPC)
[20] = dose: 100.0 mg/kg/injection, schedule: Q04DX003 (ip), vehicle: other

Measured: T/C

CCCCCCCCCCCCCCCC(CCCC)C1CCCCC1 (stereo not drawn)
inactive: dose: 100.0 mg/kg/injection, schedule: Q01DX001 (ip), vehicle: saline + alcohol 100 % of control | dose: 200.0 mg/kg/injection, schedule: Q01DX001 (ip), vehicle: saline + alcohol 98 % of control | dose: 400.0 mg/kg/injection, schedule: Q01DX001 (ip), vehicle: saline + alcohol 96 % of control

Cc1ccc(S(=O)(=O)OC(C(F)(F)F)C(F)(F)F)cc1
inactive: [1] 97 % of control | [2] 90 % of control | [3] 101 % of control

Cc1cc(C)cc(OCC(=O)O)c1
inactive: [4] 95 % of control | [5] 90 % of control | [6] 106 % of control

C/C(=N\O)c1ccc(OCC(O)CN2CCN(c3ccccc3)CC2)cc1 (stereo not drawn)
inactive: dose: 37.5 mg/kg/injection, schedule: Q04DX003 (ip), vehicle: saline with Tween-80 101 % of control | dose: 50.0 mg/kg/injection, schedule: Q01DX009 (ip), vehicle: saline with Tween-80 103 % of control | dose: 75.0 mg/kg/injection, schedule: Q04DX003 (ip), vehicle: saline with Tween-80 93 % of control | [7] 108 % of control | dose: 150.0 mg/kg/injection, schedule: Q04DX003 (ip), vehicle: saline with Tween-80 101 % of control | [8] 115 % of control

CC(C)c1ccc(/C=N/NC(=S)Nc2ccccc2)cc1
inactive: [9] 93 % of control | [10] 93 % of control | [11] 90 % of control

Cc1nc(Br)c([N+](=O)[O-])[nH]1
inactive: dose: 100.0 mg/kg/injection, schedule: Q01DX001 (ip), vehicle: saline with Tween-80 95 % of control | dose: 200.0 mg/kg/injection, schedule: Q01DX001 (ip), vehicle: saline with Tween-80 114 % of control | dose: 400.0 mg/kg/injection, schedule: Q01DX001 (ip), vehicle: saline with Tween-80 97 % of control

CC1(C)N=C(N)N=C(N)N1c1cc(Cl)cc(CCCCc2ccc(S(=O)(=O)F)cc2)c1
inactive: dose: 25.0 mg/kg/injection, schedule: Q04DX003 (ip), vehicle: Klucel (hydroxypropylcellulose) (HPC) 109 % of control | dose: 50.0 mg/kg/injection, schedule: Q04DX003 (ip), vehicle: Klucel (hydroxypropylcellulose) (HPC) 112 % of control | [4] 107 % of control and 118 % of control

CC(=O)Oc1ccc(N2CC=C(c3ccccc3)CC2)cc1
inactive: [1] 89 % of control | [2] 95 % of control

O=C(c1ccc(C(=O)Nc2cccc3ccccc23)c(C(=O)O)c1)c1ccc(C(=O)Nc2cccc3ccccc23)c(C(=O)O)c1
inactive: [1] 97 % of control | [2] 94 % of control | [3] 94 % of control

Cc1ccc(Nc2cc(=S)nc(N)[nH]2)cc1
inactive: dose: 100.0 mg/kg/injection, schedule: Q01DX Z (ip), vehicle: methylcellulose (MC) 93 % of control | dose: 200.0 mg/kg/injection, schedule: Q01DX Z (ip), vehicle: methylcellulose (MC) 86 % of control

COC(/C=C\C(OC)OC)OC
inactive: dose: 12.5 mg/kg/injection, schedule: Q04DX003 (ip), vehicle: saline 106 % of control | dose: 25.0 mg/kg/injection, schedule: Q04DX003 (ip), vehicle: saline 101 % of control | dose: 50.0 mg/kg/injection, schedule: Q04DX003 (ip), vehicle: saline 101 % of control | [9] 98 % of control | [10] 96 % of control | [11] 96 % of control

O=C(CBr)c1ccncc1
inactive: dose: 5.0 mg/kg/injection, schedule: Q01DX001 (ip), vehicle: saline 103 % of control | [12] 103 % of control | [13] 94 % of control

CN(C)C(C)(C)CNc1ccc(C(=O)O)cc1
inactive: dose: 6.0 mg/kg/injection, schedule: Q01DX009 (ip), vehicle: saline 96 % of control | dose: 12.0 mg/kg/injection, schedule: Q01DX009 (ip), vehicle: saline 97 % of control | dose: 25.0 mg/kg/injection, schedule: Q01DX009 (ip), vehicle: saline 100 % of control and 98 % of control | dose: 50.0 mg/kg/injection, schedule: Q01DX009 (ip), vehicle: saline 109 % of control | dose: 100.0 mg/kg/injection, schedule: Q04DX003 (ip), vehicle: saline 98 % of control | dose: 200.0 mg/kg/injection, schedule: Q04DX003 (ip), vehicle: saline 101 % of control

CC(=O)Nc1cncc2ccccc12
inactive: [14] 104 % of control | dose: 100.0 mg/kg/injection, schedule: Q04DX002 (ip), vehicle: other 97 % of control | [15] 101 % of control | dose: 200.0 mg/kg/injection, schedule: Q04DX002 (ip), vehicle: other 105 % of control | [16] 106 % of control | dose: 400.0 mg/kg/injection, schedule: Q04DX002 (ip), vehicle: other 105 % of control

O=C(Nc1ccc([N+](=O)[O-])cc1Cl)SCc1ccccc1
inactive: [17] 96 % of control | [9] 94 % of control and 101 % of control | [1] 95 % of control and 105 % of control | [4] 92 % of control | [18] 96 % of control | [10] 97 % of control and 106 % of control | [2] 103 % of control and 105 % of control | [5] 95 % of control | [19] 96 % of control | [3] 94 % of control and 95 % of control | [6] 92 % of control

CS(=O)(=O)N(CC(=O)O)Cc1cccnc1
inactive: [14] 101 % of control | [20] 106 % of control | [15] 101 % of control | dose: 200.0 mg/kg/injection, schedule: Q04DX003 (ip), vehicle: other 93 % of control | [16] 105 % of control | dose: 400.0 mg/kg/injection, schedule: Q04DX003 (ip), vehicle: other 95 % of control

CCCCCCCCCCCCCCCCC(=O)OCC
inactive: dose: 75.0 mg/kg/injection, schedule: Q01DX001 (ip), vehicle: carboxymethylcellulose (CMC) 91 % of control

C=CCCC1(CCC)C(=O)NC(=O)NC1=O
inactive: dose: 75.0 mg/kg/injection, schedule: Q01DX001 (ip), vehicle: saline 103 % of control | dose: 150.0 mg/kg/injection, schedule: Q01DX001 (ip), vehicle: saline 113 % of control | dose: 300.0 mg/kg/injection, schedule: Q01DX001 (ip), vehicle: saline 101 % of control

CC1OC(c2ccccc2)OC2COC(c3ccccc3)OC12 (stereo not drawn)
inactive: dose: 100.0 mg/kg/injection, schedule: Q04DX003 (ip), vehicle: saline with Tween-80 102 % of control | dose: 200.0 mg/kg/injection, schedule: Q04DX003 (ip), vehicle: saline with Tween-80 96 % of control | dose: 400.0 mg/kg/injection, schedule: Q04DX003 (ip), vehicle: saline with Tween-80 96 % of control

Nc1ccc(SCCCCCCSc2ccc(N)cc2)cc1
inactive: [20] 94 % of control

O=S(=O)(Nc1ccc(NS(=O)(=O)c2ccccc2)c(S(=O)(=O)c2ccccc2)c1)c1ccccc1
inactive: [7] 100 % of control | [8] 98 % of control | dose: 400.0 mg/kg/injection, schedule: Q01DX009 (ip), vehicle: saline with Tween-80 94 % of control

c1ccc(NC2CCCCC2)nc1
inactive: dose: 100.0 mg/kg/injection, schedule: Q04DX003 (ip), vehicle: gum acacia 95 % of control | dose: 200.0 mg/kg/injection, schedule: Q04DX003 (ip), vehicle: gum acacia 98 % of control | dose: 400.0 mg/kg/injection, schedule: Q04DX003 (ip), vehicle: gum acacia 96 % of control

Cc1ccc([N+](=O)[O-])cc1NC(=O)N(C)Cc1ccc(Cl)cc1
inactive: [17] 90 % of control | [9] 89 % of control and 90 % of control | [4] 102 % of control | [18] 98 % of control | [10] 94 % of control and 97 % of control | [5] 98 % of control | [19] 93 % of control | [11] 93 % of control and 90 % of control | [6] 100 % of control and 122 % of control

NC1CCc2ccccc2-c2ccccc21 (stereo not drawn)
inactive: [12] 101 % of control | [13] 108 % of control | dose: 40.0 mg/kg/injection, schedule: Q01DX001 (ip), vehicle: saline 101 % of control

c1cc[c]([Ge]([c]2ccccc2)([c]2ccccc2)[c]2cc[c]([Ge]([c]3ccccc3)([c]3ccccc3)[c]3ccccc3)cc2)cc1
inactive: dose: 100.0 mg/kg/injection, schedule: Q04DX002 (ip), vehicle: saline with Tween-80 97 % of control | dose: 200.0 mg/kg/injection, schedule: Q04DX002 (ip), vehicle: saline with Tween-80 87 % of control | dose: 400.0 mg/kg/injection, schedule: Q04DX002 (ip), vehicle: saline with Tween-80 91 % of control

Reference: PubChem BioAssay AID248 (DTP/NCI, 2004)
